Reference: ChEMBL document CHEMBL5252549, “Recent developments on synthesis and biological activities of γ-carboline” (Eur J Med Chem, 2018)
Values after ≈ are worked out from the molar mass of the structure shown. Structures can show the parent of a compound that is named as a salt.

Experiments:
[1] = Selectivity index, ratio of CC50 for cytotoxicity against MDBK cells to EC50 for antiviral activity against bovine viral diarrhea virus 1 infected in MDBK cells; format: toxicity, cell-based; conditions: cattle, read-out: Ratio CC50/EC50
[2] = tested on: Bovine viral diarrhea virus 1; experiment: Antiviral activity against bovine viral diarrhea virus 1 infected in MDBK cells assessed as reduction in viral replication-induced cell destruction incubated for 3 days; format: functional, organism-based; conditions: Bovine viral diarrhea virus isolates and strains, 72 h
[3] = biological target: T1, Glutamate receptor ionotropic, NMDA 2B (Homo sapiens, UniProt Q05586+Q13224); experiment: Displacement of [3H]ifenprodyl from NMDA receptor NR2B subunit (unknown origin)
[4] = biological target: T1, Glutamate receptor ionotropic, NMDA 2B; experiment: Displacement of [3H]MK801 from NMDA receptor NR2B subunit (unknown origin)
[5] = biological target: Cholinesterase (Homo sapiens, UniProt P06276); experiment: Inhibition of BChE (unknown origin)
[6] = biological target: Glutamate [NMDA] receptor; experiment: Displacement of [3H]ifenprodyl from NMDA receptor (unknown origin); format: protein-complex assay, Homo sapiens
[7] = biological target: Acetylcholinesterase (Homo sapiens, UniProt P22303); experiment: Inhibition of human erythrocyte AChE incubated for 10 mins by Ellman's method; format: cell-based
[8] = biological target: Cholinesterase (Equus caballus, UniProt P81908); experiment: Inhibition of horse serum BChE incubated for 10 mins by Ellman's method; format: cell-free
[9] = tested on: L5178Y; experiment: Cytotoxicity against mouse L5178Y cells; format: functional, cell-based
[10] = tested on: Escherichia coli; experiment: Antibacterial activity against Escherichia coli assessed as inhibition of bacterial growth incubated for 24 hrs by agar diffusion assay; format: functional, organism-based

Cholinesterase (Homo sapiens, UniProt P06276), sequence (P06276 whole entry): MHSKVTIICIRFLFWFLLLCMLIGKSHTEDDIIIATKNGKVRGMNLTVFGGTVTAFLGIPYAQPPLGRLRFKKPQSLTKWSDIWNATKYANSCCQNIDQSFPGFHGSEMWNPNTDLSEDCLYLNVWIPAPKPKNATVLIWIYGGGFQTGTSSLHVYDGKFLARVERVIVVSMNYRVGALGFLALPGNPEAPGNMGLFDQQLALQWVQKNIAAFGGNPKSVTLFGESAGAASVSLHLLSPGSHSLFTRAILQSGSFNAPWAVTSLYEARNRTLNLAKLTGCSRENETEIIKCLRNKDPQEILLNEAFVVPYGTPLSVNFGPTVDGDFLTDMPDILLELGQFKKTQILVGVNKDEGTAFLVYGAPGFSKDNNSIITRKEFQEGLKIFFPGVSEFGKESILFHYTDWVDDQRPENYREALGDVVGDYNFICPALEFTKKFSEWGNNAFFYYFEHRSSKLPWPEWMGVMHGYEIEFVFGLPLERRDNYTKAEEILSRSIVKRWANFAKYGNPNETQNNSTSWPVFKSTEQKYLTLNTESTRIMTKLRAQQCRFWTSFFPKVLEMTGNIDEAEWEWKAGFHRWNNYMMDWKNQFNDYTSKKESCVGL
T1 sequence (Q13224 whole entry, one chain of several): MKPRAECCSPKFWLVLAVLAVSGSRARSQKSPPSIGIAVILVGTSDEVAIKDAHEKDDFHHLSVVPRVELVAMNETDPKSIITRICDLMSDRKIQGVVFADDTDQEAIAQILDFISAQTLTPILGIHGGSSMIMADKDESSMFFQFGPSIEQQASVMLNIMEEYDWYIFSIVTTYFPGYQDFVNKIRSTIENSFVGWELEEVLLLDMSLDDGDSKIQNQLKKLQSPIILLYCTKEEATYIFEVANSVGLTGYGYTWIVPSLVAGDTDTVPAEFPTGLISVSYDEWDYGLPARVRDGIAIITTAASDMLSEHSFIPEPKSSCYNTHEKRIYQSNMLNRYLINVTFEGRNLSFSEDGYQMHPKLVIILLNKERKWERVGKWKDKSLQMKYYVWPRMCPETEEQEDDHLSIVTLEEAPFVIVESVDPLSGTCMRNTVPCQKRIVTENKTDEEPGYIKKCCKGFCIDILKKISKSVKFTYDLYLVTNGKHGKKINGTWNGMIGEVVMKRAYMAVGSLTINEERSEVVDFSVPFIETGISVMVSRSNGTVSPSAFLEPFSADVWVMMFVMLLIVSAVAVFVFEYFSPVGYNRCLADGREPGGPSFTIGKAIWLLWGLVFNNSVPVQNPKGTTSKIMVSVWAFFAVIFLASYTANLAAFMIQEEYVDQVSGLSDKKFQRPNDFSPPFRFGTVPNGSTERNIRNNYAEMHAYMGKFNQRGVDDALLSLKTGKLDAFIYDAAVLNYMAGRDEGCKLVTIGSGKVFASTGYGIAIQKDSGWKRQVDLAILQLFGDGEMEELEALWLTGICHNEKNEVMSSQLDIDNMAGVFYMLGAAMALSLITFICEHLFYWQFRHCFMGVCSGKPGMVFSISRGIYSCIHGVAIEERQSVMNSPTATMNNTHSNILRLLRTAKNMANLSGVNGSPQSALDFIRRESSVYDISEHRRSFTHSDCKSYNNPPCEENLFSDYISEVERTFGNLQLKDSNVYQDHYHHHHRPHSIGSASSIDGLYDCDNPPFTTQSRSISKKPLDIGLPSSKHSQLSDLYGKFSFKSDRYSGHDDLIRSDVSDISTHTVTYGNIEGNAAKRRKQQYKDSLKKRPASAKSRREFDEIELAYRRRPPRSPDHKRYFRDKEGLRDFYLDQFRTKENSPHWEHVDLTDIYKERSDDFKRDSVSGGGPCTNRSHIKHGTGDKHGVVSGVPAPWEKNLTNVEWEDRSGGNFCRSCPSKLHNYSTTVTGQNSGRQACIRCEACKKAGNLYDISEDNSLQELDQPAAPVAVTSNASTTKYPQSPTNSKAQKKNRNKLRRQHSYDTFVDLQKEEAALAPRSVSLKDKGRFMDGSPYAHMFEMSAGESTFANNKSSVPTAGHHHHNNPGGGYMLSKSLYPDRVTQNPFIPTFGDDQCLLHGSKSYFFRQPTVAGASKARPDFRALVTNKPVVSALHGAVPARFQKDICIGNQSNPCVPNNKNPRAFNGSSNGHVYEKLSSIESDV
Acetylcholinesterase, sequence (P22303 whole entry): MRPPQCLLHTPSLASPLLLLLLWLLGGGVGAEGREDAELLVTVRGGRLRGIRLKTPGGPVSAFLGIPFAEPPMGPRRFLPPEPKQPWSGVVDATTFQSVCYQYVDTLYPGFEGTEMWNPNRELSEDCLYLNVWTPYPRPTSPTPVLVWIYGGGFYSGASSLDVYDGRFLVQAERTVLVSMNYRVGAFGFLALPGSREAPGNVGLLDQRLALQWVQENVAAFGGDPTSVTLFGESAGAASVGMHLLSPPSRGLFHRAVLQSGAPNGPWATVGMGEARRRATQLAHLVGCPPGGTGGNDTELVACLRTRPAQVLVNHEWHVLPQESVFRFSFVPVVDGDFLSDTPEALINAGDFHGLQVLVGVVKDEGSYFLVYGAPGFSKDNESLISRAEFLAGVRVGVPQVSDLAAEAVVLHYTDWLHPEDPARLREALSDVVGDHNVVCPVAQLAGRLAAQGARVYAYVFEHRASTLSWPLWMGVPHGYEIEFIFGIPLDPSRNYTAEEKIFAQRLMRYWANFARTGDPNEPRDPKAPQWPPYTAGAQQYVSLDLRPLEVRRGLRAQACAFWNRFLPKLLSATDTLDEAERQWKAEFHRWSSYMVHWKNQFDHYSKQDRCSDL
Cholinesterase (Equus caballus, UniProt P81908), sequence (P81908 whole entry): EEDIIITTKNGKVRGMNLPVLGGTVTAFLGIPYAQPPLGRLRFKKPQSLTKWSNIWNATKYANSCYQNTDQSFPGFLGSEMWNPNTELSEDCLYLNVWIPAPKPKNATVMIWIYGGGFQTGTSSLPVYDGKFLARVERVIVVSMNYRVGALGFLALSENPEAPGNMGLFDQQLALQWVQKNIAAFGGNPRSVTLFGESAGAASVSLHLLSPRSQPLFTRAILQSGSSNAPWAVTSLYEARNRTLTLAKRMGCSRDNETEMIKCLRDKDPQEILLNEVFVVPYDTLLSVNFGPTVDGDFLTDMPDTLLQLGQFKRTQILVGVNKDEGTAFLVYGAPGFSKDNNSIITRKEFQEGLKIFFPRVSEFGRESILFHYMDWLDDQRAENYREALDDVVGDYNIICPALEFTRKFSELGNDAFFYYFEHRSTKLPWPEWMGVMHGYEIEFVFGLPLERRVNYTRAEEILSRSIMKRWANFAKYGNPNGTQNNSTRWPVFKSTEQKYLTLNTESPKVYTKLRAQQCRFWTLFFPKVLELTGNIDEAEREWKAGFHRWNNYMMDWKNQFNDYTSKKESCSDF

In the case of c1ccc2c(c1)[nH]c1ccncc12, the selectivity ratio [1] is reported as 20.

Cc1ncc2c3ccccc3n(C)c2c1C showed an EC50 [2] of 0.0035 µM and a selectivity ratio [1] of 2060.

With CCN1CCc2c(c3cc(F)ccc3n2CCC(=O)N2c3ccccc3Sc3ccccc32)C1 the IC50 [3] was 8.8 µM and the IC50 [4] was 15.8 µM.

With CCN1CCc2c(c3ccccc3n2CCC(=O)N2c3ccccc3Sc3ccccc32)C1 the IC50 [3] was 13.4 µM and the IC50 [4] was 14.6 µM.

For Cc1ccc2c(c1)c1c(n2CC(O)Cn2c3c(c4ccccc42)CCCC3)CCN(C)C1 (stereo unspecified), the IC50 [5] was 3.9 µM.

CN1CCc2c(c3cc(F)ccc3n2CC(O)Cn2c3c(c4ccccc42)CCCC3)C1 (stereo unspecified) gave an IC50 [5] of 5.03 µM.

Compound CCN1CCc2c(c3cc(C)ccc3n2CC(O)Cn2c3c(c4ccccc42)CCCC3)C1 (stereo unspecified) has an IC50 [5] of 5.23 µM.

With Cc1ccc2c(c1)c1c(n2CC(O)Cn2c3ccccc3c3ccccc32)CCN(C)C1 (stereo unspecified) the IC50 [6] was 11.7 µM.

CCc1ccc2c(c1)c1c(n2CCC(=O)N2c3ccccc3Sc3ccccc32)CCN(C)C1 gave an IC50 [3] of 15.4 µM and an IC50 [4] of 13.2 µM.

In the case of CCN1CCc2c(c3cc(C)ccc3n2-c2c(C(F)(F)F)nc3ccccn23)C1, the IC50 [3] is reported as 39.5 µM.

For CCN1CCc2c(c3cc(C)ccc3n2CC(O)Cn2c3ccccc3c3ccccc32)C1 (stereo unspecified), the IC50 [6] was 12.5 µM.

For CN1CCc2c(c3ccccc3n2CC(O)Cn2c3c(c4ccccc42)CCCC3)C1 (stereo unspecified), the IC50 [5] was 1.06 µM.

With Cc1ccc2c(c1)c1c(n2CCC(=O)N(C)c2c(C(F)(F)F)nc3cc(C)ccn23)CCN(C)C1 the IC50 [3] was 32.6 µM.

In the case of CCN1CCc2c(c3cc(F)ccc3n2CC(O)Cn2c3c(c4ccccc42)CCCC3)C1 (stereo unspecified), the IC50 [5] is reported as 5.83 µM.

Compound CN1CCc2c(c3ccccc3n2Cc2ccccc2C(=O)NCCO[N+](=O)[O-])C1 has an IC50 [7] of 14.8 µM and an IC50 [8] of 3.68 µM.

In the case of COc1ccc2c(c1)c1c(n2CC(O)CN2c3ccccc3Sc3ccccc32)CCN(C)C1 (stereo unspecified), the IC50 [5] is reported as 0.39 µM.

For Nc1nccc(-c2cncc3c2[nH]c2ccccc23)n1, the EC50 [9] was 9.1 µg/mL (≈ 34.8 µM).

Work on CCN1CCc2c(c3ccccc3n2CC(O)Cn2c3c(c4ccccc42)CCCC3)C1 (stereo unspecified) yielded an IC50 [5] of 2.77 µM.

With Cn1cc2c3ccccc3n(C)c2c(Cc2ccccc2Cl)c1=O the IC50 [10] was 17 µM.

For Cc1ccc2c(c1)c1c(n2CCc2ccc(C)nc2)CCN(C)C1 [LATREPIRDINE], the IC50 [3] was 82.4 µM.

Compound CN(C)[C@@H]1C(O)=C(C(N)=O)C(=O)[C@@]2(O)C(O)=C3C(=O)c4c(O)cccc4[C@@](C)(O)[C@H]3C[C@@H]12 [TETRACYCLINE HYDROCHLORIDE] has an IC50 [10] of 30 µM.
